The source of these data is ChEMBL document CHEMBL3414527, “Engineering potent and selective analogues of GpTx-1, a tarantula venom peptide antagonist of the Na(V)1.7 sodium channel” (J Med Chem, 2015).

The structures appear in SMILES notation. Bridge positions count the residues as written; N and C are the ends. Peptide text beside a SMILES is read from it. Some results are limits rather than exact numbers.

Test [1] addresses Sodium channel protein type 9 subunit alpha (Homo sapiens, UniProt Q15858). Kind of test: Inhibition of human NaV1.7 at -140 mV holding potential by whole-cell patch clamp assay.
The target of test [2] is Sodium channel protein type 5 subunit alpha (Homo sapiens, UniProt Q14524). The test can be described thus: Inhibition of human NaV1.5 at -140 mV holding potential by whole-cell patch clamp assay.
Sequence of Sodium channel protein type 5 subunit alpha (Q14524 whole entry): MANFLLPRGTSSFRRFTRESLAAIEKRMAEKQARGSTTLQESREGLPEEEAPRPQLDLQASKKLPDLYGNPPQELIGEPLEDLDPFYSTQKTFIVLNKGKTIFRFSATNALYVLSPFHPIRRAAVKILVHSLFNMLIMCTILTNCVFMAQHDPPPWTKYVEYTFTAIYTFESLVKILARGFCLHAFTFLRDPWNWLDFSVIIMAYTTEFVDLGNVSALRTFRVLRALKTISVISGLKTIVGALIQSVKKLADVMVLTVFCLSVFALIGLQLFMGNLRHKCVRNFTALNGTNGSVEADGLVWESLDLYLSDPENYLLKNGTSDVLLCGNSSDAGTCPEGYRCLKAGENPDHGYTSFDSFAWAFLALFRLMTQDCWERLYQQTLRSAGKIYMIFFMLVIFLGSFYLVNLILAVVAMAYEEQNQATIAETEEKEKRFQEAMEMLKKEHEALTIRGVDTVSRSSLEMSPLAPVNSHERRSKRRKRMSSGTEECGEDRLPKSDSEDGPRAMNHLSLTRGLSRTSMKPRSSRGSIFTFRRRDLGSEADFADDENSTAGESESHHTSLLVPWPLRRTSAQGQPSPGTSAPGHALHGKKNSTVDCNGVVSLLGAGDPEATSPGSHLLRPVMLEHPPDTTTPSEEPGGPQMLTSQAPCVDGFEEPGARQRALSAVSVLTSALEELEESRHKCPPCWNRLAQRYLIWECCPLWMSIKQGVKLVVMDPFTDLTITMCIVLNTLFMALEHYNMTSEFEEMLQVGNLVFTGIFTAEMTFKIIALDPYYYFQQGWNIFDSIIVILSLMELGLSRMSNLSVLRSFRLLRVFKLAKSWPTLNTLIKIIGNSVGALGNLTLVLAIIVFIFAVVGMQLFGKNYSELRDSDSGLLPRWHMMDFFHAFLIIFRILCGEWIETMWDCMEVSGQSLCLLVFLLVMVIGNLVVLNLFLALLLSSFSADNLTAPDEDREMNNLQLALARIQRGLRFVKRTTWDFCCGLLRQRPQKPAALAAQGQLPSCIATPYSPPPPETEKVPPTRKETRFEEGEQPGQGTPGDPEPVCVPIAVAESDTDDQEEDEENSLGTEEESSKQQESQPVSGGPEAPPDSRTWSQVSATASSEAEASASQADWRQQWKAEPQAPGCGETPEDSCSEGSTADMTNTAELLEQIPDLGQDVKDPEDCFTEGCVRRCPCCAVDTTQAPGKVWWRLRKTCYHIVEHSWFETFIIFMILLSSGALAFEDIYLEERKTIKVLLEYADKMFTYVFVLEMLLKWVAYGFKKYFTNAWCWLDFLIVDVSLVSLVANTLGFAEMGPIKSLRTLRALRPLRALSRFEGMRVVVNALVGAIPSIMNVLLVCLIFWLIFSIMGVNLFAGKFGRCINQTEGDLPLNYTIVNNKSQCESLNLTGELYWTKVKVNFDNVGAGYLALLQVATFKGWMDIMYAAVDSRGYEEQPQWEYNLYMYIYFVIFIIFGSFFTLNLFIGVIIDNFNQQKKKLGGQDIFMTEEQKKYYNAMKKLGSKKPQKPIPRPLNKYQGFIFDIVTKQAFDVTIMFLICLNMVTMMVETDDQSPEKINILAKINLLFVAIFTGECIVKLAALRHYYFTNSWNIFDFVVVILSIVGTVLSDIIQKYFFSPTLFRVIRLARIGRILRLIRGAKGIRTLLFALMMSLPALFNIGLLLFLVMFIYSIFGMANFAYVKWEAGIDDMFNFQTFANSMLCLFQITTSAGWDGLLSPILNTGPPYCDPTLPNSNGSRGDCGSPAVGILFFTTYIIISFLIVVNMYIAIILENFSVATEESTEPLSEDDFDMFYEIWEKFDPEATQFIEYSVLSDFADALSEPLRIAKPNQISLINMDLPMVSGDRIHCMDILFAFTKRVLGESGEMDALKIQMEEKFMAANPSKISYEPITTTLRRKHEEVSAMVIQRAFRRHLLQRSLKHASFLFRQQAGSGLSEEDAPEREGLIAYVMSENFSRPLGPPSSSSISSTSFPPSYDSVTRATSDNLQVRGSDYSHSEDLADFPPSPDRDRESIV

Sequence of Sodium channel protein type 9 subunit alpha (Q15858 whole entry): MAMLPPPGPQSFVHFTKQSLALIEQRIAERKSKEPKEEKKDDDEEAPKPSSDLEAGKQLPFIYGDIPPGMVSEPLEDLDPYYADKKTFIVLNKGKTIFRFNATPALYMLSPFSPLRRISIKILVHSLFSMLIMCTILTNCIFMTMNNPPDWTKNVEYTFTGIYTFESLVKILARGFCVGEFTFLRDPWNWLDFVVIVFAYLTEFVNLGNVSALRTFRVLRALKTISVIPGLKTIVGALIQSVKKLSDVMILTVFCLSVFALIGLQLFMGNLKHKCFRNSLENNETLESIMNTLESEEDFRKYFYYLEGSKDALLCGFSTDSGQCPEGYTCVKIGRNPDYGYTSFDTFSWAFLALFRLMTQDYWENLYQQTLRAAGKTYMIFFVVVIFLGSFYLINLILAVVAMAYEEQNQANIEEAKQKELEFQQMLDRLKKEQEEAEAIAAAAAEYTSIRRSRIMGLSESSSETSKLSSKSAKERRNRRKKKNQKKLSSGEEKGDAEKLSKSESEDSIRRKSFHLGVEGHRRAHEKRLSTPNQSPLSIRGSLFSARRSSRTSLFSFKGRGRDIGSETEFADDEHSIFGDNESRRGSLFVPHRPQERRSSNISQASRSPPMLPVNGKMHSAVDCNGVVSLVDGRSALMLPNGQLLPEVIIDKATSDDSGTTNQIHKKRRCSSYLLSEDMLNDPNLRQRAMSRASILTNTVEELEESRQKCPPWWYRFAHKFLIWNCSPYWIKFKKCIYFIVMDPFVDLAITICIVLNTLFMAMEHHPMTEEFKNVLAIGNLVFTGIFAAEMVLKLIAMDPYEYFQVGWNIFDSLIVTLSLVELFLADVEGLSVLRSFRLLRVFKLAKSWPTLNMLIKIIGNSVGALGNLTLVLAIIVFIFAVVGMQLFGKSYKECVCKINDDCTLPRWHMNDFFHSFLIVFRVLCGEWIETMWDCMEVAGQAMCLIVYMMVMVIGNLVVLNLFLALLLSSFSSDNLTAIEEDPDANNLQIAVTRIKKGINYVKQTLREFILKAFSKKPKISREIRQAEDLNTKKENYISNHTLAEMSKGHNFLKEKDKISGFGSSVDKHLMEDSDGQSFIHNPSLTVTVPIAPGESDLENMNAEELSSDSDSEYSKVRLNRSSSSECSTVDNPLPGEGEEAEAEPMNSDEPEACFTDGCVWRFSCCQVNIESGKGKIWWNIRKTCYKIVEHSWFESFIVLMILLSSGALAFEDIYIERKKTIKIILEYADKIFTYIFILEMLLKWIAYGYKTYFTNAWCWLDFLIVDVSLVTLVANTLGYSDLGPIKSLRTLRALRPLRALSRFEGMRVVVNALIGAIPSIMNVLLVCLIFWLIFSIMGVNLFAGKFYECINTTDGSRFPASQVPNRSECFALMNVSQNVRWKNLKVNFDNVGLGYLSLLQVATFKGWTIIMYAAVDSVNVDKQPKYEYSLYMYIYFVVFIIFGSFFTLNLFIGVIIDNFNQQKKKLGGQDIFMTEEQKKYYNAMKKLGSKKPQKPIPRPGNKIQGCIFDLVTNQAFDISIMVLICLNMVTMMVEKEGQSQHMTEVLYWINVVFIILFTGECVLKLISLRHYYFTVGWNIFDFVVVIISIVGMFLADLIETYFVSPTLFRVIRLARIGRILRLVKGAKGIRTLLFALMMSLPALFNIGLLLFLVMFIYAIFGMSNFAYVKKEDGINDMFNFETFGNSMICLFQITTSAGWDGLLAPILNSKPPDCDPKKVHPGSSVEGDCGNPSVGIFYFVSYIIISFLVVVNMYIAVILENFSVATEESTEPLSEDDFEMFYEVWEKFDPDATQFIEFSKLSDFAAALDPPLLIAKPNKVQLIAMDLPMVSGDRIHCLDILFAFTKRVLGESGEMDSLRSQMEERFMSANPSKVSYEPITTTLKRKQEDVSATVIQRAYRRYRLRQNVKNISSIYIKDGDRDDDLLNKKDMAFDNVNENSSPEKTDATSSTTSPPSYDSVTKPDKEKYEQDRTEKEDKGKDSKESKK

With `CC[C@H](C)[C@@H]1NC(=O)[C@@H]2CSSC[C@@H]3NC(=O)[C@H](C(C)C)NC(=O)[C@H](CC(C)C)NC(=O)[C@H](CC(N)=O)NC(=O)[C@@H]4CCCN4C(=O)[C@H](CCCNC(=N)N)NC(=O)[C@H](CSSC[C@H](NC(=O)[C@@H](N)CC(=O)O)C(=O)N[C@@H](CC(C)C)C(=O)NCC(=O)N[C@@H](Cc4ccccc4)C(=O)N[C@@H](CCSC)C(=O)N[C@@H](CCCNC(=N)N)C(=O)N[C@@H](CCCCN)C(=O)N2)NC(=O)[C@H](CSSC[C@@H](C(=O)N[C@@H](CCCCN)C(=O)N[C@@H](Cc2ccc(O)cc2)C(=O)N[C@H](C(=O)N[C@@H](Cc2ccccc2)C(N)=O)C(C)C)NC(=O)[C@H](Cc2c[nH]c4ccccc24)NC(=O)[C@H](C)NC(=O)[C@H](Cc2cnc[nH]2)NC(=O)[C@H]([C@@H](C)O)NC(=O)[C@H](CCCNC(=N)N)NC(=O)[C@H](CO)NC3=O)NC(=O)[C@H](CCCCN)NC(=O)[C@H](CC(=O)O)NC(=O)[C@H](CC(N)=O)NC(=O)[C@H](CC(=O)O)NC(=O)[C@@H]2CCCN2C1=O` (H-DCLGFMRKCIPDNDKCCRPNLVCSRTHAWCKYVF-NH2; disulfide 2-17, 9-23, 16-30), the figures for the IC50 in test [1] and in test [2] were 470 nM and more than 5000 nM, respectively.
As for `CC[C@H](C)[C@@H]1NC(=O)[C@@H]2CSSC[C@@H]3NC(=O)[C@H](C(C)C)NC(=O)[C@H](CC(C)C)NC(=O)[C@H](CC(N)=O)NC(=O)[C@@H]4CCCN4C(=O)[C@H](CCCNC(=N)N)NC(=O)[C@H](CSSC[C@H](NC(=O)[C@@H](N)CC(=O)O)C(=O)N[C@@H](CC(C)C)C(=O)NCC(=O)N[C@@H](Cc4ccccc4)C(=O)N[C@@H](CCSC)C(=O)N[C@@H](CCCNC(=N)N)C(=O)N[C@@H](CCCCN)C(=O)N2)NC(=O)[C@H](CSSC[C@@H](C(=O)N[C@@H](CCCCN)C(=O)N[C@@H](Cc2ccc(O)cc2)C(=O)N[C@H](C(=O)N[C@@H](Cc2ccccc2)C(N)=O)C(C)C)NC(=O)[C@H](Cc2c[nH]c4ccccc24)NC(=O)[C@H](CCC(=O)O)NC(=O)[C@H](Cc2cnc[nH]2)NC(=O)[C@H]([C@@H](C)O)NC(=O)[C@H](CCCNC(=N)N)NC(=O)[C@H](CO)NC3=O)NC(=O)[C@H](CCCCN)NC(=O)[C@H](CC(=O)O)NC(=O)[C@H](CC(N)=O)NC(=O)[C@H](CC(=O)O)NC(=O)[C@@H]2CCCN2C1=O` (H-DCLGFMRKCIPDNDKCCRPNLVCSRTHEWCKYVF-NH2; disulfide 2-17, 9-23, 16-30), the IC50 in test [1] is 29 nM; in test [2], more than 10000 nM.
In the same order, the values of `CC[C@H](C)[C@@H]1NC(=O)[C@@H]2CSSC[C@@H]3NC(=O)[C@H](C(C)C)NC(=O)[C@H](CC(C)C)NC(=O)[C@H](CC(N)=O)NC(=O)[C@@H]4CCCN4C(=O)[C@H](CCCNC(=N)N)NC(=O)[C@H](CSSC[C@H](NC(=O)[C@@H](N)CC(=O)O)C(=O)N[C@@H](CC(C)C)C(=O)NCC(=O)N[C@@H](Cc4ccccc4)C(=O)N[C@@H](CCSC)C(=O)N[C@@H](CCCNC(=N)N)C(=O)N[C@@H](CCCCN)C(=O)N2)NC(=O)[C@H](CSSC[C@@H](C(=O)N[C@@H](CCCCN)C(=O)N[C@@H](Cc2ccc(O)cc2)C(=O)N[C@H](C(=O)N[C@@H](Cc2ccccc2)C(N)=O)C(C)C)NC(=O)[C@H](C)NC(=O)[C@H](CCCCN)NC(=O)[C@H](Cc2cnc[nH]2)NC(=O)[C@H]([C@@H](C)O)NC(=O)[C@H](CCCNC(=N)N)NC(=O)[C@H](CO)NC3=O)NC(=O)[C@H](CCCCN)NC(=O)[C@H](CC(=O)O)NC(=O)[C@H](CC(N)=O)NC(=O)[C@H](CC(=O)O)NC(=O)[C@@H]2CCCN2C1=O` (H-DCLGFMRKCIPDNDKCCRPNLVCSRTHKACKYVF-NH2; disulfide 2-17, 9-23, 16-30) are more than 5000 nM and more than 5000 nM.
In the same order, the values of `CC[C@H](C)[C@@H]1NC(=O)[C@@H]2CSSC[C@@H]3NC(=O)[C@H](C(C)C)NC(=O)[C@H](CC(C)C)NC(=O)[C@H](CC(N)=O)NC(=O)[C@@H]4CCCN4C(=O)[C@H](CCCNC(=N)N)NC(=O)[C@H](CSSC[C@H](NC(=O)[C@@H](N)CC(=O)O)C(=O)N[C@@H](CC(C)C)C(=O)NCC(=O)N[C@@H](Cc4ccccc4)C(=O)N[C@@H](CCSC)C(=O)N[C@@H](CCCNC(=N)N)C(=O)N[C@@H](CCCCN)C(=O)N2)NC(=O)[C@H](CSSC[C@@H](C(=O)N[C@@H](C)C(=O)N[C@@H](Cc2ccc(O)cc2)C(=O)N[C@H](C(=O)N[C@@H](Cc2ccccc2)C(N)=O)C(C)C)NC(=O)[C@H](Cc2c[nH]c4ccccc24)NC(=O)[C@H](CCCCN)NC(=O)[C@H](Cc2cnc[nH]2)NC(=O)[C@H]([C@@H](C)O)NC(=O)[C@H](CCCNC(=N)N)NC(=O)[C@H](CO)NC3=O)NC(=O)[C@H](CCCCN)NC(=O)[C@H](CC(=O)O)NC(=O)[C@H](CC(N)=O)NC(=O)[C@H](CC(=O)O)NC(=O)[C@@H]2CCCN2C1=O` (H-DCLGFMRKCIPDNDKCCRPNLVCSRTHKWCAYVF-NH2; disulfide 2-17, 9-23, 16-30) are more than 5000 nM and more than 5000 nM.
In the same order, the values of `CC[C@H](C)[C@@H]1NC(=O)[C@@H]2CSSC[C@@H]3NC(=O)[C@H](C(C)C)NC(=O)[C@H](CC(C)C)NC(=O)[C@H](CC(N)=O)NC(=O)[C@@H]4CCCN4C(=O)[C@H](CCCNC(=N)N)NC(=O)[C@H](CSSC[C@H](NC(=O)[C@@H](N)CC(=O)O)C(=O)N[C@@H](CC(C)C)C(=O)NCC(=O)N[C@@H](Cc4ccccc4)C(=O)N[C@@H](CCSC)C(=O)N[C@@H](CCCNC(=N)N)C(=O)N[C@@H](CCCCN)C(=O)N2)NC(=O)[C@H](CSSC[C@@H](C(=O)N[C@@H](CCCCN)C(=O)N[C@@H](Cc2ccc(O)cc2)C(=O)N[C@@H](C)C(=O)N[C@@H](Cc2ccccc2)C(N)=O)NC(=O)[C@H](Cc2c[nH]c4ccccc24)NC(=O)[C@H](CCCCN)NC(=O)[C@H](Cc2cnc[nH]2)NC(=O)[C@H]([C@@H](C)O)NC(=O)[C@H](CCCNC(=N)N)NC(=O)[C@H](CO)NC3=O)NC(=O)[C@H](CCCCN)NC(=O)[C@H](CC(=O)O)NC(=O)[C@H](CC(N)=O)NC(=O)[C@H](CC(=O)O)NC(=O)[C@@H]2CCCN2C1=O` (H-DCLGFMRKCIPDNDKCCRPNLVCSRTHKWCKYAF-NH2; disulfide 2-17, 9-23, 16-30) are 170 nM and more than 5000 nM.
Consider `CC[C@H](C)[C@@H]1NC(=O)[C@@H]2CSSC[C@@H]3NC(=O)[C@H](C(C)C)NC(=O)[C@H](CC(C)C)NC(=O)[C@H](CC(N)=O)NC(=O)[C@@H]4CCCN4C(=O)[C@H](CCCNC(=N)N)NC(=O)[C@H](CSSC[C@H](NC(=O)[C@@H](N)CC(=O)O)C(=O)N[C@@H](CC(C)C)C(=O)NCC(=O)N[C@@H](Cc4ccccc4)C(=O)N[C@@H](CCSC)C(=O)N[C@@H](CCCNC(=N)N)C(=O)N[C@@H](CCCCN)C(=O)N2)NC(=O)[C@H](CSSC[C@@H](C(=O)N[C@@H](CCCCN)C(=O)N[C@@H](Cc2ccc(O)cc2)C(=O)N[C@H](C(=O)N[C@@H](C)C(N)=O)C(C)C)NC(=O)[C@H](Cc2c[nH]c4ccccc24)NC(=O)[C@H](CCCCN)NC(=O)[C@H](Cc2cnc[nH]2)NC(=O)[C@H]([C@@H](C)O)NC(=O)[C@H](CCCNC(=N)N)NC(=O)[C@H](CO)NC3=O)NC(=O)[C@H](CCCCN)NC(=O)[C@H](CC(=O)O)NC(=O)[C@H](CC(N)=O)NC(=O)[C@H](CC(=O)O)NC(=O)[C@@H]2CCCN2C1=O` (H-DCLGFMRKCIPDNDKCCRPNLVCSRTHKWCKYVA-NH2; disulfide 2-17, 9-23, 16-30), for which the figures for the IC50 in test [1] and in test [2] were 1200 nM and more than 5000 nM, respectively.
In the same order, the values of `CC[C@H](C)[C@@H]1NC(=O)[C@@H]2CSSC[C@@H]3NC(=O)[C@H](C(C)C)NC(=O)[C@H](CC(C)C)NC(=O)[C@H](CC(N)=O)NC(=O)[C@@H]4CCCN4C(=O)[C@H](CCCNC(=N)N)NC(=O)[C@H](CSSC[C@H](NC(=O)[C@@H](N)CC(=O)O)C(=O)N[C@@H](CC(C)C)C(=O)NCC(=O)N[C@@H](Cc4ccccc4)C(=O)N[C@@H](Cc4c[nH]c5ccccc45)C(=O)N[C@@H](CCCNC(=N)N)C(=O)N[C@@H](CCCCN)C(=O)N2)NC(=O)[C@H](CSSC[C@@H](C(=O)N[C@@H](CCCCN)C(=O)N[C@@H](Cc2ccc(O)cc2)C(=O)N[C@H](C(=O)N[C@@H](Cc2ccccc2)C(N)=O)C(C)C)NC(=O)[C@H](Cc2c[nH]c4ccccc24)NC(=O)[C@H](CCCCN)NC(=O)[C@H](Cc2cnc[nH]2)NC(=O)[C@H]([C@@H](C)O)NC(=O)[C@H](CCCNC(=N)N)NC(=O)[C@H](CO)NC3=O)NC(=O)[C@H](CCCCN)NC(=O)[C@H](CC(=O)O)NC(=O)[C@H](CC(N)=O)NC(=O)[C@H](CC(=O)O)NC(=O)[C@@H]2CCCN2C1=O` (H-DCLGFWRKCIPDNDKCCRPNLVCSRTHKWCKYVF-NH2; disulfide 2-17, 9-23, 16-30) are 23 nM and 3400 nM.
In the same order, the values of `CC[C@H](C)[C@@H]1NC(=O)[C@@H]2CSSC[C@@H]3NC(=O)[C@H](C(C)C)NC(=O)[C@H](CC(C)C)NC(=O)[C@H](CC(N)=O)NC(=O)[C@@H]4CCCN4C(=O)[C@H](CCCNC(=N)N)NC(=O)[C@H](CSSC[C@H](NC(=O)[C@@H](N)CC(=O)O)C(=O)N[C@@H](CC(C)C)C(=O)NCC(=O)N[C@@H](Cc4ccccc4)C(=O)N[C@@H](Cc4ccc(O)cc4)C(=O)N[C@@H](CCCNC(=N)N)C(=O)N[C@@H](CCCCN)C(=O)N2)NC(=O)[C@H](CSSC[C@@H](C(=O)N[C@@H](CCCCN)C(=O)N[C@@H](Cc2ccc(O)cc2)C(=O)N[C@H](C(=O)N[C@@H](Cc2ccccc2)C(N)=O)C(C)C)NC(=O)[C@H](Cc2c[nH]c4ccccc24)NC(=O)[C@H](CCCCN)NC(=O)[C@H](Cc2cnc[nH]2)NC(=O)[C@H]([C@@H](C)O)NC(=O)[C@H](CCCNC(=N)N)NC(=O)[C@H](CO)NC3=O)NC(=O)[C@H](CCCCN)NC(=O)[C@H](CC(=O)O)NC(=O)[C@H](CC(N)=O)NC(=O)[C@H](CC(=O)O)NC(=O)[C@@H]2CCCN2C1=O` (H-DCLGFYRKCIPDNDKCCRPNLVCSRTHKWCKYVF-NH2; disulfide 2-17, 9-23, 16-30) are 63 nM and more than 10000 nM.
